# In patent US11795510B2, “Identification of epigenomic reprogramming in cancer and uses thereof” (The Johns Hopkins University, priority 2016, dated 2023):
# Entries after “also recorded” stand apart in the source; their conditions may differ.
# Test system: global chromatin modifications in peritoneal subclone (A38Per), normal cells (HPDE, fibroblast) and local-regional PDACs
# Assay: Western blots of histone modifications, peritoneal subclone, normal cells and local-regional PDACs
# Format: cell-based, human
# Protocol: Histones were acid extracted as described and western blots performed on 3.5 ug histones, which were checked by Ponceau stains prior to western blot to ensure equal loading. Densitometry was performed with ImageJ software. RNA was extracted with Trizol reagent (Life Technologies) and isopropanol precipitated. Genomic DNA was purified with MasterPure DNA extraction reagents (Epicenter). Immunohistochemistry, H&E staining, and immunofluorescence on formalin-fixed, paraffin-embedded (FFPE) tissue microarray sections (TMAs) were performed according to standard procedures.
# RNAi experiments were performed with siRNA transfections (Oligofectamine, Life Technologies) using negative control siRNA (Sigma, SIC001) and pre-designed siRNA oligonucleotides against indicated genes in parallel (Sigma, PGD: SASI_Hs02 00334150, CDH2: SASI_Hs01_00153995, TOP2B: SASI_Hs02_00311874). siRNAs against mutant KRAS^G12V (CUACGCCAACAGCUCCAAC) (SEQ ID NO:1) were custom designed. Cells were incubated with siRNAs for 4 days after transfection and harvested. For drug treatments in 2-D, cells were grown to 70-80% confluency and treated for 3 days with 250 uM 6AN or DMSO negative control.
compound,measurement,setting,value
"NC(=O)c1ccc(N)nc1 [6AN, 6-aminonicotinamide]","histone modifications, western blot densitometry","normal (HPDE, fibroblast) or local-regional PDAC samples",minimal effects; also recorded: did not show such changes
same,effect on global chromatin modifications (western blots),peritoneal subclone A38Per,no effect
